Columns and labels:
HCT116 cells = experiment: Dose response studies in CRC line HCT116 (wt APC); type: cell-based; settings: Homo sapiens, HCT-116; read-out: IC50 towards HCT116 cells
From the text: These 14 compounds then were obtained commercially and their IC50 determined by performing dose response studies with half log dilution series at 12 concentration points in two authentic CRC lines: HCT116 (wt APC) and DLD1 (truncated APC). […] These two compounds served as initial lead compounds for analog development and for additional studies.

[1] = test system: colorectal tumors in CPC;Apc mice; experiment: CPC;Apc genetically engineered mouse model of colorectal tumors; settings: in vivo
Description: These mice carry a CDX2P-NLS Cre recombinase transgene and a loxP-targeted Apc allele that deletes exon 14, leading to a frame shift at codon 580 and a truncated APC protein (Hinoi, T. et al. Mouse model of colonic adenoma-carcinoma progression based on somatic Apc inactivation. Cancer Res 67, 9721-9730 (2007)). […] Weights were measured every 15 days over the treatment period. These studies were performed according to the guidelines of the UT Southwestern Institutional Animal Care and Use Committee.

DLD1 tumors = experiment: DLD1 xenograft mouse model; type: in vivo; settings: 40 mg/kg intraperitoneally twice daily for 18 days

In the case of `COc1ccc(S(=O)(=O)N2CCC(N3CCC(C)CC3)CC2)cc1` [TASIN-1], the IC50 (HCT116 cells) is reported as over 10 µM, the “toxicity in xenograft and genetically engineered CRC mouse models” value [1] is reported as “without noticeable toxicity” and the overt toxicity (DLD1 tumors) is reported as “no overt toxicity”.
